Source: patent US20240287046A1, “COMPOUNDS AND RADIOLIGANDS FOR TARGETING NEUROTENSIN RECEPTOR AND USES THEREOF” (Full-Life Technologies HK Limited, priority 2022, published 2024)
One block for each compound: values may come before it.

Assays:
[1] = test system: ASPC-1 tumor-bearing mice; assay: Biodistribution of radionuclide labeled complexes in ASPC-1 tumor-bearing mice; type: in vivo, BALB/c nude mice
In short: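 Radiolabeled compound (~30-50 μCi, ~1.11-1.85 MBq, specific activity 30-250 μCi/nmol) was injected i.v. via tail vein into nude mice carrying 0.05-0.50 g subcutaneous NTSR-1-positive human tumors. At set times, tissues were collected, weighed and γ-counted; % ID and % ID/g were calculated.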

[2] = test system: pancreatic cancer patients; settings: cited from earlier work
human NTSR-1 [3] = molecular target: T1, human NTSR-1 (Homo sapiens (Human), UniProt P30989); assay: radioligand competitive binding assay using ^177Lu labeled C-1 as reference radioligand
Method: The binding affinities of test compounds were determined by a radioligand competitive binding assay using ^177Lu labeled C-1 as the reference radioligand.
Briefly, 100 μL HT-29 cells expressing human NTSR-1 at a density of 1˜2×10^6 cells/mL were mixed with binding buffer (RPMI-1640 medium supplemented with 0.25% bovine serum albumin) in each well of the 96-well filter plate (Millipore). Then the cells in each well were incubated with ^177Lu—C-1 (0.55 μCi/well) and the test compound under 37° C. for 1 hr (n=3). After incubation, unbound ^177Lu—C-1 and the test compound in each well was removed by filtration using a Multiscreen vacuum manifold (Millipore) and the cells were further rinsed with the binding buffer for 5 times. The cells from each well were then collected and radioactivity of the cells in each well was individually measured by y counter (2480 WIZARD2, PerkinElmer). The best-fit IC50 value of test compounds (inhibitory concentration when 50% of the bound ^177Lu—C-1 on cells were displaced) were calculated by fitting the data with nonlinear regression using GraphPad Prism 8.0.1.

human NTSR-1 [4] = molecular target: T1, human NTSR-1; assay: FLIPR assay, inhibition of Neurotensin-induced intracellular-calcium mobilization; type: cell-based; settings: HEK293 cells stably expressing human NTSR-1, mean; read-out: IC50 (nM) in FLIPR Assays
Method: Binding affinities of the representative compounds were also evaluated by FLIPR assay. Neurotensin receptor 1 belongs to the G-protein coupled receptors (GPCR) family. Activation of NTSR-1 by its ligand Neurotensin can induce intracellular-calcium mobilization. In FLIPR assay, the test compound and Neurotensin were incubated together with cells expressing NTSR-1 to measure inhibition of the intracellular-calcium mobilization by the test compound so that to evaluate its binding affinity.
Briefly, HEK293 cells stably expressing human NTSR-1 were plated in 384-well plates. 20 ul cell suspension at a concentration of 10×10^5 per ml was seeded in each well and incubated at 37° C. 5% CO2 overnight. Then the cells in each well were mixed with 20 ul probenecid assay buffer, 20 ul 8 uM Fluo-4 Direct™ Loading Buffer, 6×EC80 of Neurotensin and 10 μl of the diluted test compound, and incubated at 37° C. 5% CO2 for 50 min followed by incubation at room temperature for 10 min. The plate was then subject to FLIPR analysis.

[5] = test system: ASPC-1 tumor-bearing mice; assay: PET/CT imaging of ^68Ga-labeled complexes; type: in vivo; settings: over 180 minutes
Method: ASPC-1 tumor-bearing mice were IV-injected with 150 μCi of ^68Ga-labeled compounds, anesthetized under 2% isoflurane/oxygen gas and placed on the scanner. PET images were acquired in one bed position for 10 min using an animal PET/SPECT/CT (Inliview-3000B). Whole-body PET images were acquired at 30, 60, 120 and 180 minutes after injection of the radiotracers.

T1 sequence (P30989 whole entry): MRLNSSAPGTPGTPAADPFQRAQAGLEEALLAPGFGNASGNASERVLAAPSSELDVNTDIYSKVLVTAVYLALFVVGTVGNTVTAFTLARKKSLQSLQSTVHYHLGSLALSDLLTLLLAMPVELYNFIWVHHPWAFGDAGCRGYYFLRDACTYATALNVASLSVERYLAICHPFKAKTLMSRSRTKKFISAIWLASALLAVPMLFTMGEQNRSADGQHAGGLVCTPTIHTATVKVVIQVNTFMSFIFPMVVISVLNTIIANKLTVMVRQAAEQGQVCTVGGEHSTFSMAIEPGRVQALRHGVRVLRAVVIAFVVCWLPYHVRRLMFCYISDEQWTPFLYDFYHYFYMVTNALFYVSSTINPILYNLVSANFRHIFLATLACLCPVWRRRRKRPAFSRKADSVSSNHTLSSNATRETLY

% ID/g (1 h) Blood ([1]; Blood, 1 h): 13.87 ± 0.17 % ID/g | % ID/g (4 h) Blood ([1]; Blood, 4 h): 4.46 ± 0.64 % ID/g | % ID/g (24 h) Blood ([1]; Blood, 24 h): 0.31 ± 0.1 % ID/g | % ID/g (72 h) Blood ([1]; Blood, 72 h): 0.09 ± 0.01 % ID/g | % ID/g (1 h) Femur ([1]; Femur, 1 h): 1.34 ± 0.23 % ID/g | % ID/g (4 h) Femur ([1]; Femur, 4 h): 0.89 ± 0.11 % ID/g | % ID/g (24 h) Femur ([1]; Femur, 24 h): 0.22 ± 0.13 % ID/g | % ID/g (72 h) Femur ([1]; Femur, 72 h): 0.12 ± 0.03 % ID/g | % ID/g (1 h) Heart ([1]; Heart, 1 h): 4.83 ± 1.1 % ID/g | % ID/g (4 h) Heart ([1]; Heart, 4 h): 1.72 ± 0.18 % ID/g | % ID/g (24 h) Heart ([1]; Heart, 24 h): 0.37 ± 0.07 % ID/g | % ID/g (72 h) Heart ([1]; Heart, 72 h): 0.16 ± 0.04 % ID/g | % ID/g (1 h) Intestine ([1]; Intestine, 1 h): 1.98 ± 0.63 % ID/g | % ID/g (4 h) Intestine ([1]; Intestine, 4 h): 1.62 ± 0.41 % ID/g | % ID/g (24 h) Intestine ([1]; Intestine, 24 h): 0.44 ± 0.11 % ID/g | % ID/g (72 h) Intestine ([1]; Intestine, 72 h): 0.15 ± 0.06 % ID/g | % ID/g (1 h) Kidney ([1]; Kidney, 1 h): 3.34 ± 1.53 % ID/g | % ID/g (4 h) Kidney ([1]; Kidney, 4 h): 2.6 ± 0.93 % ID/g | % ID/g (24 h) Kidney ([1]; Kidney, 24 h): 1.36 ± 0.42 % ID/g | % ID/g (72 h) Kidney ([1]; Kidney, 72 h): 0.46 ± 0.08 % ID/g | % ID/g (1 h) Liver ([1]; Liver, 1 h): 2.01 ± 1.1 % ID/g | % ID/g (4 h) Liver ([1]; Liver, 4 h): 2.51 ± 0.12 % ID/g | % ID/g (24 h) Liver ([1]; Liver, 24 h): 1.53 ± 0.93 % ID/g | % ID/g (72 h) Liver ([1]; Liver, 72 h): 0.99 ± 0.37 % ID/g | % ID/g (1 h) Lung ([1]; Lung, 1 h): 3.67 ± 2.25 % ID/g | % ID/g (4 h) Lung ([1]; Lung, 4 h): 1.92 ± 0.99 % ID/g | % ID/g (24 h) Lung ([1]; Lung, 24 h): 0.69 ± 0.14 % ID/g | % ID/g (72 h) Lung ([1]; Lung, 72 h): 0.23 ± 0.06 % ID/g | % ID/g (1 h) Muscle ([1]; Muscle, 1 h): 0.93 ± 0.21 % ID/g | % ID/g (4 h) Muscle ([1]; Muscle, 4 h): 0.31 ± 0.1 % ID/g | % ID/g (24 h) Muscle ([1]; Muscle, 24 h): 0.1 ± 0.05 % ID/g | % ID/g (72 h) Muscle ([1]; Muscle, 72 h): 0.06 ± 0.03 % ID/g | % ID/g (1 h) Pancreas ([1]; Pancreas, 1 h): 0.8 ± 0.47 % ID/g | % ID/g (4 h) Pancreas ([1]; Pancreas, 4 h): 0.27 ± 0.06 % ID/g | % ID/g (24 h) Pancreas ([1]; Pancreas, 24 h): 0.1 ± 0.02 % ID/g | % ID/g (72 h) Pancreas ([1]; Pancreas, 72 h): 0.07 ± 0.03 % ID/g | % ID/g (1 h) Spleen ([1]; Spleen, 1 h): 1.25 ± 0.78 % ID/g | % ID/g (4 h) Spleen ([1]; Spleen, 4 h): 0.49 ± 0.04 % ID/g | % ID/g (24 h) Spleen ([1]; Spleen, 24 h): 0.35 ± 0.3 % ID/g | % ID/g (72 h) Spleen ([1]; Spleen, 72 h): 0.34 ± 0.1 % ID/g | % ID/g (1 h) Stomach ([1]; Stomach, 1 h): 1.35 ± 0.42 % ID/g | % ID/g (4 h) Stomach ([1]; Stomach, 4 h): 0.6 ± 0.23 % ID/g | % ID/g (24 h) Stomach ([1]; Stomach, 24 h): 0.15 ± 0.04 % ID/g | % ID/g (72 h) Stomach ([1]; Stomach, 72 h): 0.05 ± 0 % ID/g | % ID/g (1 h) Tumor ([1]; Tumor, 1 h): 10.34 ± 5.66 % ID/g | % ID/g (4 h) Tumor ([1]; Tumor, 4 h): 16.13 ± 4.47 % ID/g | % ID/g (24 h) Tumor ([1]; Tumor, 24 h): 12.6 ± 3.52 % ID/g | % ID/g (72 h) Tumor ([1]; Tumor, 72 h): 8.03 ± 5.76 % ID/g
Compound: COc1cccc(OC)c1-c1cc(C(=O)NC2(C(=O)O)C3CC4CC(C3)CC2C4)nn1-c1ccc(C(=O)N(C)CCCN(C)CCCN(C)C(=O)CN2CCN(CC(=O)[O-])CCN(CC(=O)[O-])CCN(CC(=O)[O-])CC2)cc1C(C)C.[177Lu+3] (centres unmarked) [^177Lu-C-2, reference compound]
dose limiting organ ([2]; human study): kidney

Relative Binding Affinity (human NTSR-1 [3]; Mean IC50 of C-1/Mean IC50 of the test compound): 7.2 | potency relative to SR142948 (human NTSR-1 [3]; competitive radioligand binding assay using HT-29 cells): about 40% | AUC (0-72 h) ratio Tumor/Blood ([1]; ^177Lu-labeled complex): 9.0 | AUC (0-72 h) ratio Tumor/Kidney ([1]; ^177Lu-labeled complex): 8.80 | AUC (0-72 h) ratio Tumor/Liver ([1]; ^177Lu-labeled complex): 7.61 | AUC (0-72 h) ratio Tumor/Lung ([1]; ^177Lu-labeled complex): 14.2 | IC50 (human NTSR-1 [4]): 45.4 nM
Compound: COc1cccc(OC)c1-c1cc(C(=O)NC2(C(=O)O)C3CC4CC(C3)CC2C4)nn1-c1ccc(C(=O)N(C)CCCN(C)CCCN(C)C(=O)CN2CCN(CC(=O)O)CCN(CC(=O)O)CCN(CC(=O)O)CC2)cc1C(C)C (centres unmarked) [Compound C-2, 2,2′,2″-(10-(2-((3-((3-(4-(3-((2-carboxyadamantan-2-yl)carbamoyl)-5-(2,6-dimethoxyphenyl)-1H-pyrazol-1-yl)-3-isopropyl-N-methylbenzamido)propyl)(methyl)amino)propyl)(methyl)amino)-2-oxoethyl)-1,4,7,10-tetraazacyclododecane-1,4,7-triyl)triacetic acid, reference compound]
tumor uptake of the radioligand ([2]; ^177Lu-chelated form, small number of pancreatic cancer patients): clearly observed

tumor uptake/retention compared to ^68Ga—C-5 (PET/CT) ([5]; ASPC-1 tumor-bearing mice): stronger tumor uptake/retention | tumor to normal contrast compared to ^68Ga—C-5 (PET/CT) ([5]; such as tumor to liver): better tumor to normal contrast
Compound: COc1cccc(OC)c1-c1cc(C(=O)NC2(C(=O)O)C3CC4CC(C3)CC2C4)nn1-c1ccc(N(CCCN(C)C)C(=O)COCCOCCNC(=O)CN2CCN(CC(=O)[O-])CCN(CC(=O)[O-])CCN(CC(=O)[O-])CC2)cc1C(C)C.[68Ga+3] (centres unmarked) [^68Ga—I-6]
